Laboratory results from patent publication US20080260842A1, “PERMEATION ENHANCING COMPOSITIONS FOR ANTICHOLINERGIC AGENTS” (priority 2004, published 2008).
Like-named read-outs stand apart in the source and are kept apart here. Values belong to the compound of their own block, whether it stands above or below them.

Assays:
[1] = Pharmacokinetic study of R/S OXY and DEO enantiomers, transdermal oxybutynin gel (Example 20); format: in vivo, human; conditions: single-dose topical 84 mg OXY gel, abdominal area, normalized to 84 mg, mean ± SD, N = 10
Description: Ten healthy volunteers (Asian Indians, 60% female) aged 18 to 35 (mean 29) years old were treated with 2.8 g of a formulation of the present invention containing 3% w/w of OXY base (84 mg OXY), administered topically as a single dose on the abdomen (700 cm^2).

[2] = Dose-ranging pharmacokinetic study of transdermal oxybutynin gel in healthy volunteers (Example 18); conditions: after 20 days (steady-state), mean ± SD, N = 16
Description: The study was an open-label, randomized, parallel, three-treatment, dose-ranging pharmacokinetic study. […] The subjects were aged 19 to 53 (mean 35) years.
The oxybutynin transdermal gel formulation contained 3% w/w of oxybutynin base in a hydroalcoholic non-occlusive matrix including the unique combination of permeation enhancers of the present invention. Three different doses of the gel were administered topically once a day during 20 consecutive days: treatment A consisted in a daily amount of 1.4 g applied gel, corresponding to 42 mg oxybutynin; treatment B consisted in a daily amount of 2.0 g applied gel, corresponding to 60 mg oxybutynin; and treatment C consisted in a daily amount of 2.8 g applied gel, corresponding to 84 mg oxybutynin.

[3] = Pilot pharmacokinetic study of an oxybutynin gel formulation in healthy volunteers (Example 17); conditions: Treatment A (60 mg/day gel), 156 h, individual subjects
Description: (§1) Subjects were excluded on the basis of any preexisting condition or finding on the prestudy examination that would place them at risk during the study. Written informed consent was obtained from each subject before participating in any study-related procedures after discussion and explanation of the study.
(§2) Treatments were administered according to an open-label, multiple-dose, escalating dose titration pilot pharmacokinetic study and included a transdermal oxybutynin gel. Steady-state conditions were achieved by administering daily doses for 7 days. Subjects participated in 2 study periods during which the test medication (a transdermal gel) was applied once daily. 2 g of the gel (corresponding to a dose of 60 mg of oxybutynin) was applied daily during the first study period (Treatment A), then 1 g (corresponding to a dose of 30 mg of oxybutynin) during the second study period (Treatment B). A wash-out period of 7 days was observed between the two study periods. Both dosages were tested on same subjects. The design allows comparison between different dosages of the same formulation within the subject and removes inter-subject variability.
(§3) The main objective of this study was to assess the pharmacokinetic parameters of an oxybutynin gel formulation, administered in two different doses, administering the product in 8 healthy female volunteers.
(§4) The secondary objective of this study was to record safety parameters such as adverse events, skin tolerance, vital signs, e.g., blood pressure and heart rate.

[4] = female, human, in vivo
Description: as §1, §2, §3, §4

[5] = both, human, in vivo
detrusor muscle = conditions: cited from earlier work
clinical = conditions: both, human, in vivo, 84 mg, Tmax median

Compound: CCNCC#CCOC(=O)[C@](O)(c1ccccc1)C1CCCCC1 [R-DEX]
AUC0-120 [1]: 269.5 ± 132.8 ng·h/mL
Cmax [1]: 6.3 ng/mL

Compound: CCNCC#CCOC(=O)[C@@](O)(c1ccccc1)C1CCCCC1 [S-DEX]
AUC0-120 [1]: 285.5 ± 152.9 ng·h/mL
Cmax [1]: 6.9 ± 3.8 ng/mL

Compound: CCN(CC)CC#CCOC(=O)[C@](O)(c1ccccc1)C1CCCCC1 [R-OXY]
AUC0-120 [1]: 151.1 ± 56.0 ng·h/mL
Cmax [1]: 3.6 ng/mL

Compound: CCNCC#CCOC(=O)C(O)(c1ccccc1)C1CCCCC1 (centres unmarked) [N-desethyloxybutynin]
Cav ([2]; Treatment A: 42 mg oxybutynin daily): 3.0 ± 1.3 ng/mL
Cav ([2]; Treatment B: 60 mg oxybutynin daily): 4.0 ± 2.1 ng/mL
Cav ([2]; Treatment C: 84 mg oxybutynin daily): 7.0 ± 4.0 ng/mL
N-desethyloxybutynin concentration [3]: 11.970 ng/L

More lines, main results first:

Treatment A/Treatment B Ratio - Oxybutynin [4]: 1.93
Treatment A/Treatment B Ratio - Oxybutynin ([4]; 0 h): 0
time to reach plasmatic levels of about 1 to 4 ng/ml [5]: about 2 hours
time to reach plasmatic levels of about 2 to 4 ng/ml [5]: less than 4 hours
time to reach plasmatic levels of about 3 to about 4 ng/ml [5]: less than 6 hours
time up to which plasmatic levels of about 1 to 4 ng/ml are sustained [5]: at least 72 hours
time up to which plasmatic levels of about 2 to 4 ng/ml are sustained [5]: at least 48 hours
time up to which plasmatic levels of about 3 to about 4 ng/ml are sustained [5]: at least 36 hours
Tmax (clinical): 24 h
Compound: CCN(CC)CC#CCOC(=O)C(O)(c1ccccc1)C1CCCCC1 (centres unmarked) [Oxybutynin]
antispasmodic activity relative to atropine (detrusor muscle): four to ten times
anticholinergic activity relative to atropine (detrusor muscle; detrusor muscle, effect observed in rabbits): one-fifth

AUC0-120 [1]: 246.0 ± 96.7 ng·h/mL
Cmax [1]: 5.8 ± 2.6 ng/mL
Compound: CCN(CC)CC#CCOC(=O)[C@@](O)(c1ccccc1)C1CCCCC1 [S-OXY]
